Data set [1] concerns Plasmodium falciparum. Kind of data set: Antiplasmodial activity against Plasmodium falciparum K1 assessed as reduction in [3H]-hypoxanthine after 42 hrs by microculture radioisotope technique. It counts as functional, organism-based.
Data set [2] has as its system NCI-H187. Kind of data set: Cytotoxicity against human NCI-H187 cells by resazurin microplate assay. It counts as functional, cell-based. (In general: Resazurin is reduced to fluorescent resorufin, in cell work by metabolically active cells.)
Data set [3] concerns MCF7. The data set is described as follows: Cytotoxicity against human MCF7 cells by resazurin microplate assay. It counts as functional, cell-based.
Data set [4] is described as follows: Selectivity index, ratio of IC50 for African green monkey Vero cells to IC50 for Plasmodium falciparum K1. It counts as toxicity. The following applies: read-out: Ratio IC50.
The subject of data set [5] is Vero. The data set is described as follows: Cytotoxicity against African green monkey Vero cells by green fluorescent protein-based assay. It counts as cell-based. Particulars: Chlorocebus sabaeus.

SMILES strings stand for the structures. Some results are limits rather than exact numbers.

Here are results for 25 compounds from ChEMBL document CHEMBL4610091, “Antimalarial 9-Methoxystrobilurins, Oudemansins, and Related Polyketides from Cultures of Basidiomycete Favolaschia Species” (J Nat Prod, 2020).

Regarding `O[C@@H](c1cc(C(F)(F)F)nc2c(C(F)(F)F)cccc12)[C@H]1CCCCN1`, the IC50 in data set [1] turned out to be 0.052 µM.
For the compound `C=CC(C)(C)O[C@H]1COc2ccc(/C=C/[C@H](OC)[C@@H](C)/C(=C\OC)C(=O)OC)cc2OC1(C)C`, the IC50 is 0.24 µM in data set [1], 0.96 µM in data set [2], above 105 µM in data set [3] and 24.5 µM in data set [5]. In data set [4], the selectivity ratio stood at 102.
As for `C[C@]1([C@@H]2Cc3cc(C(N)=O)cc(Cl)c3O2)CCC(=O)O1`, the IC50 in data set [1] was above 34 µM; in data set [2] it was above 169 µM; in data set [3], above 169 µM; in data set [5] it was above 169 µM.
As for `CC(=O)OCC/C(C)=C\[C@H](O)[C@H](O)c1ccccc1`, the IC50 in data set [1] is above 38 µM; in data set [2] it was above 189 µM; in data set [3], above 189 µM; in data set [5] it was above 189 µM.
Turning to `C/C(=C\c1ccccc1)[C@@H](O)C(C)(C)C(=O)O`, the IC50 in data set [1] is above 43 µM; in data set [2], above 213 µM; in data set [3], above 213 µM; in data set [5], above 213 µM.
Regarding `COC(=O)c1cc(-c2ccccc2)cc(OC)c1C`, the IC50 in data set [1] is above 39 µM; in data set [2], 188 µM; in data set [3] it was above 195 µM; in data set [5], 74 µM.
Consider `CO/C=C(/C(=O)OC)[C@H](C)[C@H](/C=C/c1cccc(OC)c1)OC`, for which the IC50 in data set [1] is 10.3 µM; in data set [2], 97.7 µM; in data set [3], above 156 µM; in data set [5] it was 112 µM. The selectivity ratio in data set [4] is 10.9.
The corresponding values for `CO\C=C(C(=O)OC)/C(C)=C\C=C\c1ccc2c(c1)OC(C)(C)[C@@H](OCC=C(C)C)CO2` are 0.84 µM, 4.9 µM, 24.8 µM, above 113 µM and above 135.
On to `COC(=O)/C(CO)=C(/C)[C@H](/C=C/c1ccc(Cl)c(OC)c1)OC`, for which the IC50 in data set [1] was above 29 µM; in data set [2] it was 141 µM; in data set [3], above 147 µM; in data set [5], 123 µM.
The corresponding values for `C=CC(C)(C)O[C@H]1COc2cc(C(=O)OC)c(C)c(OC)c2OC1(C)C` are 8.4 µM, 54.8 µM, above 113 µM and 43.4 µM.
For `CO/C=C(/C(=O)OC)[C@H](C)[C@@H](O)/C=C/c1ccccc1`, the half-inhibitory concentration (IC50) is above 36 µM in data set [1], 160 µM in data set [2] and above 181 µM in data set [5].
For `CO/C=C(/C(=O)OC)C(C)C(=O)/C=C/c1ccccc1` (centres undefined), the IC50 was above 36 µM in data set [1], 60.1 µM in data set [2], above 182 µM in data set [3] and above 182 µM in data set [5].
As for `C/C(=C\c1ccccc1)[C@@H](O)C(C)(C)O`, the IC50 in data set [1] was above 48 µM; in data set [2] it was above 242 µM; in data set [3], above 242 µM; in data set [5], above 242 µM.
On to `CO/C=C(/C(=O)OC)[C@H](C)[C@H](/C=C/c1ccc2c(c1)OC(C)(C)[C@@H](OCC=C(C)C)CO2)OC`, for which the IC50 in data set [1] was 0.48 µM; in data set [2] it was 2.2 µM; in data set [3], above 105 µM; in data set [5] it was 28.2 µM. For the same compound, in data set [4], the selectivity ratio was 58.8.
The corresponding values for `CO\C=C(C(=O)OC)/C(C)=C(\C=C\c1ccc2c(c1)O[C@@]1(CO2)O[C@H](C=C(C)C)OC1(C)C)OC` are 0.14 µM, 3.3 µM, above 103 µM, above 103 µM and above 736.
`COC(=O)/C(CO)=C(/C)[C@H](/C=C/c1ccccc1)OC`: the concentration for half-maximal inhibition (IC50) in data set [1] was above 36 µM; in data set [2], above 181 µM; in data set [3] it was above 181 µM; in data set [5], above 181 µM.
Consider `COC(=O)c1cc(-c2ccc3c(c2)O[C@@]2(CO3)O[C@H](C=C(C)C)OC2(C)C)cc(OC)c1C`, for which the values for the IC50 in data set [1], in data set [2] and in data set [5] were above 22 µM, 53.4 µM and 13.6 µM, respectively.
On to `CO/C=C(/C(=O)OC)[C@H](C)[C@H](/C=C/c1ccc2c(c1)OC(C)(C)[C@@H](O)CO2)OC`, for which the IC50 was 22.3 µM in data set [1], 56.9 µM in data set [2], above 123 µM in data set [3] and above 123 µM in data set [5]. Also, in data set [4], the selectivity ratio is above 5.2.
Regarding `COC(=O)/C(COC(=O)Cc1ccccc1)=C(/C)[C@H](/C=C/c1ccc(Cl)c(OC)c1)OC`, the IC50 in data set [1] was above 22 µM; in data set [2], 37.9 µM; in data set [3], above 109 µM; in data set [5] it was 55.4 µM.
The corresponding values for `C/C(=C/[C@H](O)[C@H](O)c1ccccc1)CCO` are above 45 µM, above 225 µM, above 225 µM and above 225 µM.
For `CO/C=C(/C(=O)OC)C(C)C(=O)/C=C/c1ccc2c(c1)OC(C)(C)[C@@H](OCC=C(C)C)CO2` (some centres undefined), the IC50 in data set [1] was 4.2 µM; in data set [2] it was 9.4 µM; in data set [3] it was above 109 µM; in data set [5], 68.2 µM. In addition, the selectivity ratio in data set [4] stood at 16.3.
The corresponding values for `C=CC(C)(C)O[C@H]1COc2ccc(/C=C/C(OC)=C(C)\C(=C/OC)C(=O)OC)cc2OC1(C)C` are 0.089 µM, 0.15 µM, 44.1 µM, 97.9 µM and 1100.
The corresponding values for `CO/C=C(/C(=O)OC)C(C)C(=O)/C=C/c1ccc2c(c1)O[C@@]1(CO2)O[C@H](C=C(C)C)OC1(C)C` (mixture of isomers) are 10.8 µM, 5.8 µM, 23.2 µM, 18.4 µM and 1.7.
On to `C[C@H]1[C@@H](O)O[C@@H]2O[C@@]3(C)CC[C@H]4[C@H](C)CC[C@@H]1[C@@]24OO3` [ARTENIMOL], for which the half-inhibitory concentration (IC50) in data set [1] stood at 0.0031 µM.
Take `Cc1c2ccncc2c(C)c2c1[nH]c1ccccc12` [ELLIPTECINE]: the IC50 is 9.3 µM in data set [2] and 7.47 µM in data set [5].

The IC50 is the midpoint of a concentration-inhibition curve.
